Converted amounts (≈) assume the structure as drawn. Like-named read-outs stand apart in the source and are kept apart here.
What was measured:
HCT116 [1] = assay: In vitro cytotoxicity assay (MTS)
Description: (§2) Two CRC cell lines, HCT116 and HT-29 originally purchased from ATCC were used. The cells were cultured at 37° C. in 5% CO2 in a humidified incubator in a 1:1 mixture of Dulbecco's modified Eagle medium and F12 (DMEM/F12) supplemented with 10% FBS, 50 U/mL penicillin, 50 mg/mL streptomycin, 2 mmol/L L-glutamine, 0.1 mmol/L nonessential amino acids, and 1 mmol/L sodium pyruvate.
(§3) In brief, 2×10^3 cells were plated in each well of 96-well flat-bottomed plates 24 h prior to the treatments. […] After different experimental incubation time points (24, 48, and 72 h), 20 μL of MTS reagent was added in each well and further incubated for 1 h at 37° C. before measuring the absorbance at 490 nm using BioTEK microplate reader. Each experiment was performed in quadruplicates.

HT-29 [2] = assay: In vitro cytotoxicity assay (MTS); settings: Homo sapiens
Description: as §2, §3

[3] = Water solubilized level of drug; format: physicochemical
HCT116 [4] = assay: Western blot of cleaved PARP, γ-H2AX, cleaved caspase-3 and -7; format: cell-based, human; settings: HCT116, 10 μM, 6 h
Description: (§1) In brief, 1×10^6 cells were plated in each well of 6-well plates 24 h prior to the treatments. […] The cells of 3 controls received only 0.1% DMSO, 10 μM A83, and 10 μM PM26/A83, respectively. Protein extracts for western blot analysis were prepared using commercial RIPA lysis buffer (ThermoFisher Scientific, Canada) supplemented with a cocktail of protease inhibitors (Millipore Sigma, Canada). Protein concentrations were measured using the BCA assay kit (Pierce/ThermoFisher Scientific, Canada) according to the manufacturer's protocol. Equal concentrations of protein were separated by SDS-PAGE and transferred to nitrocellulose membranes. After blocking with 5% skimmed milk in TBST (50 mM Tris-HCl, pH 7.4, 150 mM NaCl, and 0.1% Tween 20), the blots were incubated with the respective primary antibodies (cleaved caspase-3 cat #9661S, cleaved caspase-7 cat #9491S, PARP cat #9542S, phospho-histone H2A.X (Ser139) cat #9718S) and secondary antibody (HRP-linked anti-rabbit IgG cat #7074S) purchased from Cell Signaling Technology (Whitby, ON, Canada). The protein bands were detected using an enhanced chemiluminescence (ECL) based system (Pierce/ThermoFisher Scientific, Canada). The band intensities for the PNKP protein were quantified by performing optical density analysis using ImageJ software. Each experiment was carried out in triplicate.

HT-29 [5] = assay: as above; format: cell-based, human; settings: HT-29, 10 μM, 6 h
Description: as §1

[6] = In vitro drug release, dialysis-bag diffusion technique; format: physicochemical; settings: dialysis MWCO 3.5 kDa, 4% albumin in water, 37° C., n=3
Description: […] The concentrations of SN-38 in collected samples were determined by UV-Vis spectrophotometer (BioTEK, Winooski, VT, USA). Detection was performed at a wavelength of 383 nm. […] All experiments were carried out in triplicate.

healthy CD-1 mice = settings: up to 50 mg/kg intravenously, Cremophor EL: Ethanol or micellar formulation [20]; cited from earlier work
[7] = literature [5]; cited from earlier work

Question: With COc1ccccc1C(O)C1C=CC2C(=O)N(Cc3cccc4ccccc34)C(=O)C2N1Nc1ccc([N+](=O)[O-])cc1 (centres unmarked) [A83B4C63, 2-[hydroxy (2-methoxyphenyl)methyl]-6-(naphthalene-1-ylmethyl)-1-[(4-nitrophenyl)amino]-2H, 4aH, 7aH-pyrrolo[3,4-b]pyridine-5,7-dione] as the compound, how does the IC50 (HCT116 [1]; Homo sapiens, HCT-116, read-out: relative IC50 of PNKP inhibitor alone) read?
Answer: > 40 µM

Question: And the IC50 (HT-29 [2]; HT-29, read-out: relative IC50 of PNKP inhibitor alone)?
Answer: > 40 µM

Question: And the solubility ([3]; water, without micelles)?
Answer: 1 µM (≈ 0.565 µg/mL)

Question: What about the apoptotic signaling (HCT116 [4]) of the same compound?
Answer: no apoptotic signaling

Question: And the apoptotic signaling (HT-29 [5])?
Answer: no apoptotic signaling

Question: And the “release of A83B4C63” value ([6]; over 6 h)?
Answer: 98.81±2.09%

Question: What about the “systemic and tissue toxicity” value (healthy CD-1 mice) of the same compound?
Answer: neither systemic nor tissue toxicity

Question: What does the source list for CCc1c2c(nc3ccc(OC(=O)N4CCC(N5CCCCC5)CC4)cc13)-c1cc3c(c(=O)n1C2)COC(=O)[C@]3(O)CC [Irinotecan, 7-ethyl-10-[4-(1-piperidino)-1-piperidino] carbonyloxycamptothecin]?
Answer: IC50 (HCT116 [1]; Homo sapiens, HCT-116, 24 h, read-out: IC50 (relative IC50)): 7.3 ± 3.7 µM; IC50 (HCT116 [1]; Homo sapiens, HCT-116, 48 h, read-out: IC50 (relative IC50)): 3.9 ± 1.7 µM; IC50 (HCT116 [1]; Homo sapiens, HCT-116, 72 h, read-out: IC50 (relative IC50)): 6.3 ± 1.6 µM; IC50 (HT-29 [2]; HT-29, 24 h, read-out: IC50 (relative IC50)): 10.7 ± 4.5 µM; IC50 (HT-29 [2]; HT-29, 48 h, read-out: IC50 (relative IC50)): 11.6 ± 4.3 µM; IC50 (HT-29 [2]; HT-29, 72 h, read-out: IC50 (relative IC50)): 7.1 µM

Question: For CCc1c2c(nc3ccc(O)cc13)-c1cc3c(c(=O)n1C2)COC(=O)[C@]3(O)CC [SN-38, (S)-4, 11-Diethyl-4,9-di-OH-1, 12-dihydro-4H-2-oxa-6,12α-diaza-dibenzo[b, h]fluorene-3,13-dione], which IC50 (HCT116 [1]; read-out: IC50 (relative IC50), HCT116, 24 h, as TOP1 inhibitor concentration, A83B4C63 10 μM where present, n = 4) is on record?
Answer: 0.14 ± 0.04 µM

Question: And the IC50 (HCT116 [1]; read-out: IC50 (relative IC50), HCT116, 48 h, as TOP1 inhibitor concentration, A83B4C63 10 μM where present, n = 4)?
Answer: 0.05 ± 0.01 µM

Question: What about the IC50 (HCT116 [1]; read-out: IC50 (relative IC50), HCT116, 72 h, as TOP1 inhibitor concentration, A83B4C63 10 μM where present, n = 4) of the same compound?
Answer: 0.02 ± 0.01 µM

Question: What about the “water solubilized level of SN-38” value ([3]; unconjugated SN-38) of the same compound?
Answer: 25 µg/mL

Question: And the “potency relative to the prodrug irinotecan” value [7]?
Answer: 1,000 times

Question: What about the “release of SN-38” value ([6]; over 6 h) of the same compound?
Answer: 96.46±1.43%

Question: And the “release of A83B4C63” value ([6]; over 24 h)?
Answer: 99.81±0.01%

Reference: patent US20250120912A1, “SYNERGISTIC NANOMEDICINE DELIVERING TOPOISOMERASE I TOXIN (SN-38) AND INHIBITORS OF POLYNUCLEOTIDE KINASE 3'-PHOSPHATASE (PNKP) FOR ENHANCED TREATMENT OF COLORECTAL CANCER” (THE GOVERNORS OF THE UNIVERSITY OF ALBERTA, priority 2021, published 2025)
